Marks after values point to notes of the source that are not given here.
Key:
[1] = Water uptake and hydrate stability at relative humidity; format: physicochemical; settings: room temperature; for water absorbed: 80-100% relative humidity, about 24 h, forms dihydrate; for stability of dihydrate: 5-100% relative humidity
Protocol: To a slurry of 5-chloro-6-{2,6-difluoro-4-[3-(methylamino)propoxy]phenyl}-N-[(1S)-2,2,2-trifluoro-1-methylethyl][1,2,4]triazolo[1,5-a]pyrimidin-7-amine hydrochloride (7.50 g, 15.0 mmol) and water (100 mL) is added sodium hydroxide solution (10 N, 2.0 mL, 20 mmol) dropwise. Then, fumaric acid (3.48 g, 30 mmol) is added. The mixture is stirred for about 15-20 min and then heated to about 65-75° C. and stirred until all of the solid dissolves. The solution is filtered and the filtrate is cooled to about 0-5° C. over about 1 h. The mixture is stirred for 1 h and then filtered and the collected solid washed with cold water and isopropanol. The solid is dried under vacuum at about 60° C./10 mmHg for about 20 h to give a white solid (6.54 g, 75%) in anhydrous form. A portion of the compound is placed in a drying dish at 80-100% relative humidity (RH) and room temperature for about 24 h.
A mixture of 5-chloro-6-{2,6-difluoro-4-[3-(methylamino)propoxy]phenyl}-N-[(1S)-2,2,2-trifluoro-1-methylethyl][1,2,4]triazolo[1,5-a]pyrimidin-7-amine (9.00 g, 19.4 mmol) and succinic acid (2.75 g, 23.3 mmol) in water (90 mL) is stirred for about 15-20 min and then heated to about 65-75° C. The solution is filtered and the filtrate is cooled to about 0-5° C. over about 1 h. The mixture is stirred for about 1 h and then filtered and the collected solid washed with cold water (2×9 mL) and cold isopropanol (9 mL). The solid is dried under vacuum at about 40° C./10 mmHg for about 20 h to give a white solid in anhydrous form (6.6 g, 73%). A portion of the compound is placed in a drying dish at 80-100% relative humidity (RH) and room temperature for about 24 h.

[2] = tested on: COLO 205 cells; experiment: MTS cytotoxicity test with COLO 205 cells; format: cell-based, human; settings: 3 days, Succinate Salt
In short: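 COLO 205 human colon carcinoma cells, 1000 per well, exposed 3 days at 37° C to nine 2-fold dilutions, typical final top concentration 5 μM. MTS absorbance normalized to time-0 plate; IC50 is concentration giving colour yield midway between untreated and fully killed controls.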

[3] = tested on: H157 Human Non-Small Cell Lung Carcinoma; experiment: Human tumor xenograft test, H157; format: in vivo, athymic mice; settings: for T/C on day 0 / T/C on day 2 / T/C on day 5 / T/C on day 8 / T/C on day 12 / T/C on day 15: days 0, 7
Protocol: The ability of compounds of this invention to inhibit tumor growth in animals is studied in the athymic mouse xenograft standard pharmacological test. Female nu/nu mice in an outbred albino background are obtained from Charles River Laboratories (Wilmington, Mass.). Animals are injected subcutaneously on the flank with the desired tumor cell suspension. Several days later, mice with tumors of approximately 150 mm^3 are selected from those injected (staged) and randomly distributed into groups of 5-10. The day of staging is called day 0. Compounds of the invention, usually formulated in saline (exceptions are noted in tables), are administered to animals by intravenous injection or oral gavage on various schedules starting on day 0 or 1, as noted in the tables. The control group in each experiment is dosed with vehicle on the same schedule. Tumor size is measured every 3-7 days with calipers in two orthogonal dimensions, and tumor volume is calculated from the formula volume=[(length×width^2)/2].
Tumor/Control (T/C) is obtained by dividing the mean tumor volume of the treated group by the mean tumor volume of the control group on each measurement day. A treatment dose is defined as active if it produced a statistically significant T/C of 0.50 or less. A p value≦0.05, determined by one-side Student's t-test, is required for statistical significance. A treatment dose is defined as toxic if more than 10% of the animals died from a compound-related toxicity.

Compound | water absorbed [1] [%] | stability of dihydrate [1] | IC50 [2] [nM] | T/C on day 0 ([3]; H157, 10 mg/kg IV) | T/C on day 2 ([3]; H157, 10 mg/kg IV) | T/C on day 5 ([3]; H157, 10 mg/kg IV) | T/C on day 8 ([3]; H157, 10 mg/kg IV) | T/C on day 12 ([3]; H157, 10 mg/kg IV) | T/C on day 15 ([3]; H157, 10 mg/kg IV) | T/C on day 0 ([3]; H157, 20 mg/kg IV) | T/C on day 2 ([3]; H157, 20 mg/kg IV) | T/C on day 5 ([3]; H157, 20 mg/kg IV) | T/C on day 8 ([3]; H157, 20 mg/kg IV) | T/C on day 12 ([3]; H157, 20 mg/kg IV) | T/C on day 15 ([3]; H157, 20 mg/kg IV) | tumor growth inhibition (activity call) ([3]; H157 NSCLC, 20 and 10 mg/kg intravenously on days 0 and 7)
CNCCCOc1cc(F)c(-c2c(Cl)nc3ncnn3c2N[C@@H](C)C(F)(F)F)c(F)c1.O=C(O)/C=C/C(=O)O [Example 2b, 5-Chloro-6-{2,6-difluoro-4-[3-(methylamino)propoxy]phenyl}-N-[(1S)-2,2,2-trifluoro-1-methylethyl][1,2,4]triazolo[1,5-a]pyrimidin-7-amine Fumarate Salt] | 5.8 | stable at room temperature and at 5-100% relative humidity |  |  |  |  |  |  |  |  |  |  |  |  |  | 
CNCCCOc1cc(F)c(-c2c(Cl)nc3ncnn3c2N[C@@H](C)C(F)(F)F)c(F)c1.O=C(O)CCC(=O)O [Example 2c, 5-Chloro-6-{2,6-difluoro-4-[3-(methylamino)propoxy]phenyl}-N-[(1S)-2,2,2-trifluoro-1-methylethyl][1,2,4]triazolo[1,5-a]pyrimidin-7-amine Succinate Salt] | 5.8 | stable at room temperature and at 5-100% relative humidity | 38 | 1.07 | 1.09 | 1.00 | 0.96 | 0.49* | 0.38* | 0.98 | 0.96 | 0.50** | 0.51* | 0.44* | 0.24** | active

Reference: patent US7507739B2, “6-[(substituted)phenyl]triazolopyrimidines as anticancer agents” (Wyeth, priority 2003, dated 2009)
